Data on four molecules can be found in patent US12637719B2, “Panel of ER regulated genes for use in monitoring endocrine therapy in breast cancer” (Sanofi, priority 2020, dated 2026).

Entries after “also recorded” stand apart in the source; their conditions may differ.

Test [1] has as its system ERα target genes CXCL12 and BCAS1. In words: RT-qPCR of ERα target genes CXCL12 and Bcas1 in HCC1428-LTED cells. The conditions noted are these: for expression of CXCL12 by RT-qPCR: FIG. 1C; for expression of Bcas1 by RT-qPCR: FIG. 1D. Type of test: cell-based. The protocol: RNA was extracted using the RNeasy kit (Qiagen) per the manufacturers instruction, quantified by NanoDrop 8000 (ThermoScientific) and reverse-transcribed with cDNA archive kit (Applied Biosystems). Taqman gene expression assays (Applied Biosystems) were used to quantify PGR (Hs00172183_m1), Bcas 1 (Hs00952822_m1), CXCL12 (Hs03676656_mH), BLNK1(Hs00929914_m1), IL20 (Hs00218888_m1) and the house-keeping genes PGK (Hs00391480_m1) and GAPDH (Hs99999905 ml) The relative quantities were determined using ΔΔ threshold cycle (ΔΔCt), according to the manufacturer's instructions (Applied Biosystems).
(§1) To evaluate the ER modulation by amcenestrant and other SERDs, we treated HCC1428-LTED (long term estrogen deprived) breast cancer cell lines with SERD compounds at either 300 nM (high) or 30 nM (low) in 24 hours. To unmask the ER-intrinsic activity, we then evaluated gene expression after compound treatment in HCC1428-LTED cells, which is a cell line that is hormone-deprived. Changes in global mRNA expression were assessed 24 hours post treatment.
Findings were confirmed by measuring the expression of two well-validated ER target genes, CXCL12 and BCAS1, by RT-qPCR. Gene expression analysis provided further confirmation of the differential response of these molecules on well-validated ERα target genes (Elife. 2016; 5, Endocr Relat Cancer. 2015; 22(5):713-24).
(In general: Real-time PCR tracks product formation cycle by cycle.)

For test [2], the system named is ERα transcriptional activity in HCC1428-LTED cells. The test is described as follows: ER activity score (GSVA on 87-gene ER signature, RNA-seq) in HCC1428-LTED cells. The format is cell-based. The following applies: for ER activity score / ERα transcriptional activity (GSVA on ER signature): 300 nM (high) or 30 nM (low), 24 hours, absence of exogenous estrogen, FIG. 1B. The protocol:
The term “ER activity score,” as used herein, refers to a score obtained by using a computational method such as GSVA (Hanzelmann et al., GSVA: gene set variation analysis for microarray and RNA-seq data, in BMC Bioinformatics, 2013; 14:7, incorporated herein by reference in its entirety for its description of calculating scores using the GSVA method) on a gene expression data set obtained from a biological sample. An E2-induced score and an E2-suppressed score are calculated individually. […] The ER activity score is computed as follows: ER Activity Score=ER-induced score−E2-suppressed score.
(§2) An RNA-seq library of 96 SERD RNA samples was prepared using a kit from NuGen Ovation® Universal RNA-Seq System Method (Illumina® Platforms) conforming to the manufacturer's protocol. The 50 bp rapid single-read flow cell was used to sequence the library on the Illumina HiSeq 2500 in the rapid mode. […] TPM was calculated as calculated measured as an expression unit and then quantile-normalized and log 2-transformed. […] ER-regulated genes were identified using two comparisons. First, genes were identified that were modulated by one or more SERM or SERD compounds in Table 1 and modulated in the opposite direction by estradiol ([log 2 FC]>2 and FDR<0.05 vs. DMSO control). To identify genes that are differentially expressed between SERD compound treatment and dimethyl sulfoxide (DMSO; control) treatment groups, a two-factor (treatment and dose) analysis of variance (ANOVA) model was used at respective dose and time points. The treatment factor was fixed, with seven levels: six SERD compounds and the DMSO control. The dose factor was also fixed, with two levels: low and high. All samples were treated at 24h. Post hoc contrast analyses were performed at each dose and time level, between each SERD compound treatment and the DMSO control. […] This analysis was performed using Array Studio (Qiagen). The panel of 1022 genes identified as differentially expressed in at least one compound-versus-DMSO comparison were used for hierarchical clustering of compound treatment data normalized to DMSO control at respective dose and time points. Complete-linkage clustering was performed based on Pearson correlation coefficients. Expression profile similarity between compounds was assessed by Pearson correlation on the differentially expressed genes.
as §1
(§3) To assess the relative ER modulating activity of the compounds, a panel of ER regulated genes (87 genes, Table 3) was developed by transcriptional profiling of multiple cell lines to identify genes that were modulated by estradiol and then blocked by SERM and SERD. This panel of ER regulated genes can be used to measure ER modulation by SERMs and SERDs. An ER Activity Score was then assessed using gene set variation analysis (GSVA) on the ER Signature (BMC Bioinformatics. 2013; 14:7).

For test [3], the system named is HCC1428-LTED cells. The test is described as follows: Global mRNA expression profile similarity between SERDs (1022 differentially expressed genes, Pearson correlation). The format is cell-based. The following applies: 24 hours post treatment, 1022 transcripts, FIG. 1A, FIG. 3. The protocol:
as §2, with “The panel of 1022 genes identified as differentially expressed in at least one compound-versus-DMSO comparison were used for hierarchical clustering of compound treatment data normalized to DMSO control at respective dose and time points. Complete-linkage clustering was performed based on Pearson correlation coefficients.” left out
as §1

Test [4] relates to ERα signaling in HCI013 PDX tumor model. The test is described as follows: ER activity score (GSVA, 87-gene signature) in HCI013 PDX tumor model. Type of test: in vivo, human. The conditions noted are these: 8 h after last administration; SAR439859 100 mg/kg QD, GDC0810 100 mg/kg QD; FIG. 4B. The protocol: FIGS. 4A-B. Evaluation of target gene modulation in ERα ligands in an endocrine therapy-resistant tumor model. […] Data represent mean and standard deviation for 3 replicates for CXCL12 gene expression. An ER Signature of 87 genes was that were modulated by estradiol and then blocked by SERM and SERD compounds was used to calculate the ER Activity Score and was assessed using gene set variation analysis (GSVA). Data represents the mean and deviation from the mean for each of the described treatments.
as §3
The ERα transcriptional activity was analyzed in the HCI013 model using the panel of genes corresponding to the ER gene signature derived from the in vitro cell line analysis as previously described.

For test [5], the system named is ERα target genes PGR and CXCL12 in HCI013 tumors. The test is described as follows: RT-qPCR of PGR and CXCL12 in HCI013 PDX tumors. The format is in vivo, human. The protocol:
FIG. 2. […] For FIG. 2 *P<0.05; denotes significance compared to vehicle treated group at end of study using unpaired t test. FIGS. 4A-B. Evaluation of target gene modulation in ERα ligands in an endocrine therapy-resistant tumor model. […] Data represent mean and standard deviation for 3 replicates for CXCL12 gene expression. An ER Signature of 87 genes was that were modulated by estradiol and then blocked by SERM and SERD compounds was used to calculate the ER Activity Score and was assessed using gene set variation analysis (GSVA). Data represents the mean and deviation from the mean for each of the described treatments. RNA was extracted using the RNeasy kit (Qiagen) per the manufacturers instruction, quantified by NanoDrop 8000 (ThermoScientific) and reverse-transcribed with cDNA archive kit (Applied Biosystems). Taqman gene expression assays (Applied Biosystems) were used to quantify PGR (Hs00172183_m1), Bcas 1 (Hs00952822_m1), CXCL12 (Hs03676656_mH), BLNK1(Hs00929914_m1), IL20 (Hs00218888_m1) and the house-keeping genes PGK (Hs00391480_m1) and GAPDH (Hs99999905 ml) The relative quantities were determined using ΔΔ threshold cycle (ΔΔCt), according to the manufacturer's instructions (Applied Biosystems).

Test [6] deals with ER pathway. In words: ER activation score by GSVA (RNA-seq) in paired tumor biopsies, Phase 1/2 study. The format is in vivo, human.
For test [7], the system named is Ki67. In words: IHC Ki67 protein expression (percent positive tumor cells) in paired tumor biopsies, Phase 1/2 study. The following applies: screening to Cycle 2, Day 28; 400 mg PO QD; n=7; range −30% to +30%; FIG. 6C. Type of test: in vivo, human. The protocol:
Staining was evaluated in tumor cells only. For ER and PgR expression, H-scores were calculated.

As for `C[C@@H]1Cc2c([nH]c3ccccc23)[C@@H](c2c(F)cc(/C=C/C(=O)O)cc2F)N1CC(C)(C)F` [AZD9496], in test [1], the “expression of CXCL12 by RT-qPCR” value is reported as “failed to elicit any significant change” and the “expression of Bcas1 by RT-qPCR” value was “failed to elicit any significant change”. Also, in test [2], the “ER activity score / ERα transcriptional activity (GSVA on ER signature)” value was “only partially reduced; also recorded: only partially inhibited”. Besides, in test [3], the “correlation of induced expression profile to that of fulvestrant” value (shortened to “correlation”) was “only weakly correlated”.

On to `C[C@]12CC[C@@H]3c4ccc(O)cc4C[C@@H](CCCCCCCCC[S+]([O-])CCCC(F)(F)C(F)(F)F)[C@H]3[C@@H]1CC[C@@H]2O` (stereo partly drawn) [Fulvestrant], for which, in test [2], the “ER activity score / ERα transcriptional activity (GSVA on ER signature)” value is reported as “deep inhibition” and the “modulation of ERα intrinsic activity in the absence of E2 (inverse agonist activity)” value was “profound modulation”. The “ER activity score / ERα transcriptional activity (GSVA on ER signature)” value in test [2] (listed as fulvestrant) is listed as “strongly reduced”.

For the molecule `CC/C(=C(/c1ccc(/C=C/C(=O)O)cc1)c1ccc2[nH]ncc2c1)c1ccc(F)cc1Cl` [GDC-0810], the “ERα transcriptional activity (ER activity score) in HCI013 model” value in test [4] is “suppressive activity”. In addition, in test [1], the “expression of CXCL12 by RT-qPCR” value was “failed to elicit any significant change” and the “expression of Bcas1 by RT-qPCR” value is reported as “failed to elicit any significant change”. For the same molecule, the “ER activity score / ERα transcriptional activity (GSVA on ER signature)” value in test [2] is reported as “only partially reduced; also recorded: only partially inhibited”. The “correlation” value in test [3] was “only weakly correlated”.

`O=C(O)c1ccc2c(c1)CCCC(c1ccc(Cl)cc1Cl)=C2c1ccc(O[C@H]2CCN(CCCF)C2)cc1` [SAR439859, 6-(2,4-dichlorophenyl)-5-[4-[(3S)-1-(3-fluoropropyl)pyrrolidin-3-yl]oxyphenyl]-8,9-dihydro-7H-benzo[7]annulene-2-carboxylic acid]: the “ERα transcriptional activity (ER activity score) in HCI013 model” value in test [4] is “more marked ERα suppression”. Also, in test [1], the “expression of CXCL12 by RT-qPCR” value was “inhibited expression” and the “expression of Bcas1 by RT-qPCR” value is recorded as “induced expression”. Besides, in test [2], the “ER activity score / ERα transcriptional activity (GSVA on ER signature)” value is “strongly reduced; also recorded: deep inhibition” and the “modulation of ERα intrinsic activity in the absence of E2 (inverse agonist activity)” value was “profound modulation”. In addition, the “CXCL12 gene expression in HCI013 tumors (RT-qPCR)” value in test [5] (8 h after last administration, SAR439859 100 mg/kg QD compared to fulvestrant 200 mg/kg Q2W or GDC0810 100 mg/kg QD, FIG. 4A) is given as “stronger inhibition”. In addition, in test [5] (8 hours after last administration, SAR439859 100 mg/kg compared to fulvestrant 200 mg/kg or GDC0810 100 mg/kg, FIG. 2), the “PGR gene expression in HCI013 tumors (RT-qPCR)” value is reported as “stronger inhibition”. For the same molecule, the “ER activation score by GSVA, median change from screening” value in test [6] (all patients with paired biopsies, n=5, range −1.1 to +0.4, FIG. 6D) is −0.4. Besides, the “ER activation score by GSVA, median change from screening, patients who showed clinical benefit” value in test [6] (patients with clinical benefit, n=4, range −1.1 to 0) was −0.6. In addition, the “ER activation score by GSVA, change from screening, patient with no clinical benefit” value in test [6] (the one patient with no clinical benefit) was “+0.4”. Further, in test [3], the “correlation” value is given as “closely correlated”. Also, the “median change from screening in percentage of Ki67 positive cells” value in test [7] was −8%.
